The values below come from patent US10117942B2, “Photoactivatable lipid-based nanoparticles as vehicles for dual agent delivery” (The United States of America, as represented by the …, priority 2013, dated 2018).

The conditions of series [1]: 0.5 mg or 2.5 mg liposomal lipid.
Procedure: As a control, mice were injected with doxorubicin in the absence of liposomes.
For series [2] the following is noted: at physiological pH; cited from earlier work.

Take `COc1cccc2c1C(=O)c1c(O)c3c(c(O)c1C2=O)C[C@@](O)(C(=O)CO)C[C@@H]3O[C@H]1C[C@H](N)[C@H](O)[C@H](C)O1` [doxorubicin]: the “organ uptake (fluorescence Ex=500, Em=600)” value in series [1] is “no fluorescence was observed”.

The log P is the decadic logarithm of the partition coefficient of the neutral form, usually between octanol and water. On to `CCCCCCOC(C)c1c(C)c2cc3nc(c4c5[nH]c(cc6nc(cc1[nH]2)C(C)=C6CC)c(C)c5C(=O)C4)[C@@H](CCC(=O)O)[C@@H]3C` (some centres unmarked) [HPPH, 2-[1-hexyloxyethyl]-2-devinyl pyropheophorbide-a], for which the “log P” value in series [2] is listed as 5.6.
